SMILES strings stand for the structures.

The values that follow come from ChEMBL document CHEMBL4507288 (2021).

Test [1] deals with Histamine H2 receptor (Homo sapiens, UniProt P25021). Kind of test: GPCRScan assay: inhibition of H2. The arrangement: radioligand conc. used [nm] 0.02 – 0.05, parental cells Stable HEK.
Test [2] concerns the target Alpha-2B adrenergic receptor (Homo sapiens, UniProt P18089). As to the kind of experiment: GPCRScan assay: inhibition of Alpha2B. The arrangement: radioligand conc. used [nm] 1.5 – 2.0, parental cells HEKT.
Test [3] concerns the target 5-hydroxytryptamine receptor 7 (Homo sapiens, UniProt P34969). Kind of test: GPCRScan assay: inhibition of 5-HT7A. Also noted: radioligand conc. used [nm] 5.0 – 6.0, parental cells Stable HEK.
The target in test [4] is Sodium-dependent dopamine transporter (Homo sapiens, UniProt Q01959). As to the kind of experiment: GPCRScan assay: inhibition of DAT. Also noted: radioligand conc. used [nm] 3.6 – 16.0, parental cells stable HEK.
In test [5] the target is 5-hydroxytryptamine receptor 2B (Homo sapiens, UniProt P41595). As to the kind of experiment: GPCRScan assay: inhibition of 5-HT2B. The arrangement: radioligand conc. used [nm] 1.0 – 2.0, parental cells stable HEK.
The target of test [6] is Phosphatidylinositol 4,5-bisphosphate 3-kinase catalytic subunit beta isoform (Homo sapiens) (UniProt P42338). The settings on record: Compound concentration 1000.0 nM.
Test [7] has as its system Epidermal growth factor receptor (Homo sapiens), P00533 [G719S]. The settings on record: Compound concentration 1000.0 nM.
Test [8] addresses Protein kinase C iota type (Homo sapiens) (UniProt P41743). The settings on record: Compound concentration 1000.0 nM.
For test [9], the target named is Mitogen-activated protein kinase 6 (Homo sapiens) (UniProt Q16659). The note with it: Compound concentration 1000.0 nM.
Test [10] deals with Hepatocyte growth factor receptor (Homo sapiens), P08581 [M1250T]. The settings on record: Compound concentration 1000.0 nM.
For test [11], the target named is RAF proto-oncogene serine/threonine-protein kinase (Homo sapiens) (UniProt P04049). The note with it: Compound concentration 1000.0 nM.
Test [12] deals with Serine/threonine-protein kinase 38-like (Homo sapiens) (UniProt Q9Y2H1). The note with it: Compound concentration 1000.0 nM.
In test [13] the target is Aurora kinase A (Homo sapiens) (UniProt O14965). The note with it: Compound concentration 1000.0 nM.
The target of test [14] is Dual specificity mitogen-activated protein kinase kinase 5 (Homo sapiens) (UniProt Q13163). The note with it: Compound concentration 1000.0 nM.
The subject of test [15] is Epidermal growth factor receptor (Homo sapiens), P00533 [UNDEFINED MUTATION]. The settings on record: Compound concentration 1000.0 nM.
Test [16] addresses Homeodomain-interacting protein kinase 4 (Homo sapiens) (UniProt Q8NE63). The note with it: Compound concentration 1000.0 nM.
Test [17] has as its target Homeodomain-interacting protein kinase 3 (Homo sapiens) (UniProt Q9H422). The note with it: Compound concentration 1000.0 nM.
Test [18] addresses NUAK family SNF1-like kinase 2 (Homo sapiens) (UniProt Q9H093). The settings on record: Compound concentration 1000.0 nM.
Test [19] deals with Ephrin type-A receptor 8 (Homo sapiens) (UniProt P29322). The settings on record: Compound concentration 1000.0 nM.
Test [20] concerns the target STE20-like serine/threonine-protein kinase (Homo sapiens) (UniProt Q9H2G2). The settings on record: Compound concentration 1000.0 nM.
Test [21] addresses Serine/threonine-protein kinase 3 (Homo sapiens) (UniProt Q13188). The settings on record: Compound concentration 1000.0 nM.
Test [22] deals with Mitogen-activated protein kinase kinase kinase kinase 1 (Homo sapiens) (UniProt Q92918). The settings on record: Compound concentration 1000.0 nM.
Test [23] addresses Tyrosine-protein kinase Srms (Homo sapiens) (UniProt Q9H3Y6). The settings on record: Compound concentration 1000.0 nM.
Test [24] deals with Tyrosine-protein kinase JAK1 (Homo sapiens) (UniProt P23458). The note with it: Compound concentration 1000.0 nM.
The target of test [25] is Serine/threonine-protein kinase NIM1 (Homo sapiens) (UniProt Q8IY84). The settings on record: Compound concentration 1000.0 nM.
For test [26], the target named is Wee1-like protein kinase (Homo sapiens) (UniProt P30291). The settings on record: Compound concentration 1000.0 nM.
The target of test [27] is Mitogen-activated protein kinase 10 (Homo sapiens) (UniProt P53779). The note with it: Compound concentration 1000.0 nM.
The target of test [28] is Uncharacterized serine/threonine-protein kinase SBK3 (Homo sapiens) (UniProt P0C264). The settings on record: Compound concentration 1000.0 nM.
Test [29] has as its target RAC-beta serine/threonine-protein kinase (Homo sapiens) (UniProt P31751). The settings on record: Compound concentration 1000.0 nM.
The target in test [30] is Leukocyte tyrosine kinase receptor (Homo sapiens) (UniProt P29376). The note with it: Compound concentration 1000.0 nM.
The target in test [31] is Myosin light chain kinase (Homo sapiens) (UniProt Q32MK0). The note with it: Compound concentration 1000.0 nM.
The target of test [32] is Tyrosine-protein kinase Fes/Fps (Homo sapiens) (UniProt P07332). The note with it: Compound concentration 1000.0 nM.
Test [33] deals with Receptor-type tyrosine-protein kinase FLT3 (Homo sapiens) (UniProt P36888). The note with it: Compound concentration 1000.0 nM.
In test [34] the target is BMP-2-inducible protein kinase (Homo sapiens) (UniProt Q9NSY1). The note with it: Compound concentration 1000.0 nM.
Test [35] concerns the target Cyclin-dependent kinase 9 (Homo sapiens) (UniProt P50750). The settings on record: Compound concentration 1000.0 nM.
Test [36] concerns the target Hormonally up-regulated neu tumor-associated kinase (Homo sapiens) (UniProt P57058). The settings on record: Compound concentration 1000.0 nM.
The test system of test [37] is Epidermal growth factor receptor (Homo sapiens), P00533 [G719C]. The note with it: Compound concentration 1000.0 nM.
The target in test [38] is Macrophage colony-stimulating factor 1 receptor (Homo sapiens) (UniProt P07333). The settings on record: Compound concentration 1000.0 nM.
The target of test [39] is Serine/threonine-protein kinase PAK 4 (Homo sapiens) (UniProt O96013). The note with it: Compound concentration 1000.0 nM.
Test [40] deals with LIM domain kinase 1 (Homo sapiens) (UniProt P53667). The settings on record: Compound concentration 1000.0 nM.
The target in test [41] is Serine/threonine-protein kinase MARK2 (Homo sapiens) (UniProt Q7KZI7). The note with it: Compound concentration 1000.0 nM.
Test [42] has as its target Serine/threonine-protein kinase LATS1 (Homo sapiens) (UniProt O95835). The note with it: Compound concentration 1000.0 nM.
In test [43] the target is Serine/threonine-protein kinase DCLK1 (Homo sapiens) (UniProt O15075). The note with it: Compound concentration 1000.0 nM.
The target of test [44] is Casein kinase I isoform epsilon (Homo sapiens) (UniProt P49674). The settings on record: Compound concentration 1000.0 nM.
The target of test [45] is Serine/threonine-protein kinase N2 (Homo sapiens) (UniProt Q16513). The note with it: Compound concentration 1000.0 nM.

Sequence of 5-hydroxytryptamine receptor 7 (P34969 whole entry): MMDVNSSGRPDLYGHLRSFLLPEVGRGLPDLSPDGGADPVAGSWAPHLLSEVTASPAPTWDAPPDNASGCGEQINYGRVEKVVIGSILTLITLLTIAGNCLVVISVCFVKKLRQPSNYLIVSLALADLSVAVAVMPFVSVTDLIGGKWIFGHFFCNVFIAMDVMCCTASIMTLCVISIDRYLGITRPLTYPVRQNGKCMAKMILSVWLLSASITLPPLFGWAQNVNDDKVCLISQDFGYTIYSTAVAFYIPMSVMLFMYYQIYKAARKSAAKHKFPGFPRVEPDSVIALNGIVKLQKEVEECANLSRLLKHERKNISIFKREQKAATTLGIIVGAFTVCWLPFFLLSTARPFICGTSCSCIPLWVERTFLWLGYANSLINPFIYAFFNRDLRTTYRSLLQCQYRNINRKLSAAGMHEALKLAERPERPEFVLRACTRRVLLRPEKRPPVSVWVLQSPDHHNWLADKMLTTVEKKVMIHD
Sequence of Sodium-dependent dopamine transporter (Q01959 whole entry): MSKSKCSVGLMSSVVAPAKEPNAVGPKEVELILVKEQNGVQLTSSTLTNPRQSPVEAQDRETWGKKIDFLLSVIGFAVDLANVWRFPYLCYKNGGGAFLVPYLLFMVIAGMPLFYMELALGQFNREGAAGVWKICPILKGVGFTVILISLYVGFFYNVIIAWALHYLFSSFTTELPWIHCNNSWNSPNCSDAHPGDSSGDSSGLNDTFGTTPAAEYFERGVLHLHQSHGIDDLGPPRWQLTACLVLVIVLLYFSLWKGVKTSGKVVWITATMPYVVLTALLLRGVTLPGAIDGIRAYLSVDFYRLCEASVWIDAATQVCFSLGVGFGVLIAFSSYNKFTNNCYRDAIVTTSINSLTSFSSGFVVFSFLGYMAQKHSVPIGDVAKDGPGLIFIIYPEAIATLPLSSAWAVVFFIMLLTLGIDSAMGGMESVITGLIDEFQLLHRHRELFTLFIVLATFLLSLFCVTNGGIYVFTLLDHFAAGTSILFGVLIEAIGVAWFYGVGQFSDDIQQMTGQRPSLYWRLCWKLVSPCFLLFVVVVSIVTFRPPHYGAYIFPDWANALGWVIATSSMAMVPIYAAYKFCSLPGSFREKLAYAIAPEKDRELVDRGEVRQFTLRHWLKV
Sequence of Serine/threonine-protein kinase NIM1 (Homo sapiens) (Q8IY84 whole entry): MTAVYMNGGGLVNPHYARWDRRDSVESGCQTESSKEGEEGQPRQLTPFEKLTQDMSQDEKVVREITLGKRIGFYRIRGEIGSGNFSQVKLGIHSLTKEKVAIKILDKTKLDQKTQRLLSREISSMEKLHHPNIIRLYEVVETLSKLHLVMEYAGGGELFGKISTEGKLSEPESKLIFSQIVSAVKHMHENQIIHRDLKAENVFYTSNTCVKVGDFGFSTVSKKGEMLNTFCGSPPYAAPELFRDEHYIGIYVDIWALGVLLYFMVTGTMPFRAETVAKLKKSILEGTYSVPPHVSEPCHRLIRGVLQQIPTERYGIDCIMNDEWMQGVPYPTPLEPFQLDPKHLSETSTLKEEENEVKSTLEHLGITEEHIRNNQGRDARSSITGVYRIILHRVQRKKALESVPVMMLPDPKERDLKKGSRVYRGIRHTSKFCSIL
Sequence of Serine/threonine-protein kinase 38-like (Homo sapiens) (Q9Y2H1 2-464 limits assumed): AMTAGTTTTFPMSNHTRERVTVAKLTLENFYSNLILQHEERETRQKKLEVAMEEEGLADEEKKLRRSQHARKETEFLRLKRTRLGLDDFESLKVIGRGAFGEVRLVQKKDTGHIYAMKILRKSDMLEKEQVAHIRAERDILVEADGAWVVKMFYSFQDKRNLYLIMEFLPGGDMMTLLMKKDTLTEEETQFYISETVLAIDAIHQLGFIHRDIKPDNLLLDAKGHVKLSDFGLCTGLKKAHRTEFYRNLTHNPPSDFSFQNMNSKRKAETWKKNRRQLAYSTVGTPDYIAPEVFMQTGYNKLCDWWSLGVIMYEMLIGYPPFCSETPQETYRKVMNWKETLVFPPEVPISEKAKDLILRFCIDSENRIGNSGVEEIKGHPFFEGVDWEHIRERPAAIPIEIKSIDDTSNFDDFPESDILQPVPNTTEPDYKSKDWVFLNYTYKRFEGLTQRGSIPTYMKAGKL
Sequence of Myosin light chain kinase (Homo sapiens) (Q32MK0 whole entry): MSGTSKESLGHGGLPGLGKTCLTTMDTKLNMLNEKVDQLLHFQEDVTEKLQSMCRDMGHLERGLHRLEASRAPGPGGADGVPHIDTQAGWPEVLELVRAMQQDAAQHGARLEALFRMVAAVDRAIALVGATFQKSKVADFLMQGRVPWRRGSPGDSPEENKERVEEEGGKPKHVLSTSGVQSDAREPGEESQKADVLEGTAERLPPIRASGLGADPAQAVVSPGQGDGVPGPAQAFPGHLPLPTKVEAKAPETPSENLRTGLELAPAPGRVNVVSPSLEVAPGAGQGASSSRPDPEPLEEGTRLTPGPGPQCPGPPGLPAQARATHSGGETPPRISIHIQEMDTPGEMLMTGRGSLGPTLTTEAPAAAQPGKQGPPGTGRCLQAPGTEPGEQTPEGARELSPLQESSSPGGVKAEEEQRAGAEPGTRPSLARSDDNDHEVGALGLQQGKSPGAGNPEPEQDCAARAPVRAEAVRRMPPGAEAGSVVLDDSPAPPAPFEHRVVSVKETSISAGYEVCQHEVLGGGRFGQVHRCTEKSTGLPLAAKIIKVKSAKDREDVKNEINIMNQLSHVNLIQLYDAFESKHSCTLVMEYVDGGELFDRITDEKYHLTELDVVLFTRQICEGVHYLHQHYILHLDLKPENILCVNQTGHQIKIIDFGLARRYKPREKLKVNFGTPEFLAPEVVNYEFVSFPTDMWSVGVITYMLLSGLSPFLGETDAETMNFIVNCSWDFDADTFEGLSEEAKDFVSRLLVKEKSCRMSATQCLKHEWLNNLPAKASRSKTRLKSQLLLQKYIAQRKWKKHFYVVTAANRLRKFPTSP
Sequence of Aurora kinase A (Homo sapiens) (O14965 whole entry): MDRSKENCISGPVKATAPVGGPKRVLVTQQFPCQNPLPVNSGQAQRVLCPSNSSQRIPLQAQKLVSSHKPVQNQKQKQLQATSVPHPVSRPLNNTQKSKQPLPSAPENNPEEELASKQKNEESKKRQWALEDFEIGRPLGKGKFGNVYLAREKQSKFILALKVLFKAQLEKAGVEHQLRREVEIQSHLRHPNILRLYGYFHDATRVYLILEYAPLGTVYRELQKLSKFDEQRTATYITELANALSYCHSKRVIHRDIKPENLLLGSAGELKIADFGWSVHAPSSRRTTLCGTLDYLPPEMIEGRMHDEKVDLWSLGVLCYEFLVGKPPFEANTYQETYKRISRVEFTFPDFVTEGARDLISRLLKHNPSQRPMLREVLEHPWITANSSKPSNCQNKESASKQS
Sequence of Alpha-2B adrenergic receptor (P18089 whole entry): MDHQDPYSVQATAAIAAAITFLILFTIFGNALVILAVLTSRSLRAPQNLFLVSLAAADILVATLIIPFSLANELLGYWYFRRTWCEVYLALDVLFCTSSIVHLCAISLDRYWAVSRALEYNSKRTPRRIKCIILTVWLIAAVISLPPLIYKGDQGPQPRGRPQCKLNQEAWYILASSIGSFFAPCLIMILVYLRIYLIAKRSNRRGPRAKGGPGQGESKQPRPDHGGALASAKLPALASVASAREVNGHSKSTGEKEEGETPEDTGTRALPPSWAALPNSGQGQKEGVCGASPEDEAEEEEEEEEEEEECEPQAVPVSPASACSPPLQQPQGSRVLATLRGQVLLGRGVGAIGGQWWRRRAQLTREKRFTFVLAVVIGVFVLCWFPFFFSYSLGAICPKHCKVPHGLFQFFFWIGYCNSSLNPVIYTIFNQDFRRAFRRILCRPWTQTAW
Sequence of Uncharacterized serine/threonine-protein kinase SBK3 (Homo sapiens) (P0C264 whole entry): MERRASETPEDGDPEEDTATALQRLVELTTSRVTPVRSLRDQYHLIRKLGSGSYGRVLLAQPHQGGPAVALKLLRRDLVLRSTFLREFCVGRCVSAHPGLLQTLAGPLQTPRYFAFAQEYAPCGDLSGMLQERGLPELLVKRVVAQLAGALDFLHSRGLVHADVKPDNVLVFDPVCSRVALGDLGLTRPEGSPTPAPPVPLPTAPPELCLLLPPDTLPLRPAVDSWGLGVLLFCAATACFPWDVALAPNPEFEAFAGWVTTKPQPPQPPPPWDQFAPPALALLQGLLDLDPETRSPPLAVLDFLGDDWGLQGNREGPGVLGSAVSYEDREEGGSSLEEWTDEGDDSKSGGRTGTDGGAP
Sequence of Tyrosine-protein kinase Srms (Homo sapiens) (Q9H3Y6 whole entry): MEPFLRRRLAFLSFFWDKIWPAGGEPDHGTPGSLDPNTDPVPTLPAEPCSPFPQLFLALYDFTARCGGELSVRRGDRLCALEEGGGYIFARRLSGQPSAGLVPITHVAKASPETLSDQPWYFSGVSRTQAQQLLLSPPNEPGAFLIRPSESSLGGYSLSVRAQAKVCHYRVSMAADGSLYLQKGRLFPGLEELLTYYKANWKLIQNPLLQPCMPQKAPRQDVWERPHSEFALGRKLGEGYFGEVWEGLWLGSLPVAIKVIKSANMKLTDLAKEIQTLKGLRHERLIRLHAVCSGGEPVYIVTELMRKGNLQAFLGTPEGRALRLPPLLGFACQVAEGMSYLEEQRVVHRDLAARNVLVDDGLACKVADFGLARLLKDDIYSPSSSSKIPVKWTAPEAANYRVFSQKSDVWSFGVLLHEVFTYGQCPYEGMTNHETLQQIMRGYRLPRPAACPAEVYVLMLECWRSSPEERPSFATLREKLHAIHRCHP
Sequence of RAC-beta serine/threonine-protein kinase (Homo sapiens) (P31751 whole entry): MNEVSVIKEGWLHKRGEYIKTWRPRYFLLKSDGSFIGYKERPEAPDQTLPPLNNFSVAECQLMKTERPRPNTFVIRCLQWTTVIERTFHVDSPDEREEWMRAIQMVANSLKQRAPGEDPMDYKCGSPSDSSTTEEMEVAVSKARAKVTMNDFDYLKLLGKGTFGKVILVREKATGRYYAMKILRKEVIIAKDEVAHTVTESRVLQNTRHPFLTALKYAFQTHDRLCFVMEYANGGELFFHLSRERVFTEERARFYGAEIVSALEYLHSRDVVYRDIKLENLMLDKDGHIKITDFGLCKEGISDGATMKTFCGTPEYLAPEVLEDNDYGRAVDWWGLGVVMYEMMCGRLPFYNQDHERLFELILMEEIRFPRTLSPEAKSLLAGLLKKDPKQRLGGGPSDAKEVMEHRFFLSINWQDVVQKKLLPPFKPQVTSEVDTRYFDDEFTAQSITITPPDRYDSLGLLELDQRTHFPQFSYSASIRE

Take `CC(C)(C)OC(=O)N1CCCC1CNC1CCC(c2cc(F)ccc2F)(S(=O)(=O)c2ccc(Cl)cc2)CC1` (configuration not stated) [GSI-NC]: the Ki is 3790 nM in [1]; 879 nM in test [2]; 826 nM in test [3] (read-out: Ki); 851 nM in test [3] (read-out: pKi (converted)); 10000 nM in [4]; 21 nM in [5]. In test [4], the pKi is listed as 5.
Regarding `O=S(=O)(NC1CCC(c2cc(F)ccc2F)(S(=O)(=O)c2ccc(Cl)cc2)CC1)C(F)(F)F` (configuration not stated) [MRK-560], the residual activity in [6] is 100%; in test [7], 100%; in test [8] it was 100%; in test [9], 100%; in test [10] it was 84%; in [11], 100%. Also, the residual activity was 75% in test [12]; 100% in test [13]; 52% in test [14]; 100% in test [15]; 74% in test [16]; 100% in test [17]. Besides, the residual activity in test [18] was 100%; in test [19], 100%; in [20] it was 100%; in test [21] it was 100%; in [22], 96%; in test [23] it was 100%. Besides, the residual activity in test [24] was 70%; in [25], 80%; in test [26] it was 90%; in [27], 67%; in test [28], 93%; in [29], 99%. Moreover, the residual activity is 100% in test [30]; 86% in test [31]; 88% in test [32]; 100% in test [33]; 92% in test [34]; 91% in test [35]. Further, the residual activity was 100% in test [36]; 100% in test [37]; 100% in [38]; 100% in [39]; 86% in test [40]; 100% in [41]. Moreover, the residual activity in test [42] is 100%; in test [43], 100%; in test [44], 85%; in [45], 100%.

The term pKi denotes the Ki on a negative log10 scale, so that one unit is a factor of ten.
